For orientation: IC50 means the concentration needed to halve the response being measured. Low readings indicate inhibition by little substance, high ones a need for much substance.

The results in this text go back to ChEMBL document CHEMBL1133373, “Chemical and enzymatic modifications of integric acid and HIV-1 integrase inhibitory activity” (Bioorg Med Chem Lett, 2000).

Active and inactive are the calls of the source. The calls are words filed in the database; no cut-off is given here.

The target of assay [1] is Human immunodeficiency virus type 1 integrase (Human immunodeficiency virus 1, UniProt Q7ZJM1). Kind of assay: Inhibitory activity against HIV-1 integrase.
Chain of Human immunodeficiency virus type 1 integrase (Q7ZJM1 whole entry): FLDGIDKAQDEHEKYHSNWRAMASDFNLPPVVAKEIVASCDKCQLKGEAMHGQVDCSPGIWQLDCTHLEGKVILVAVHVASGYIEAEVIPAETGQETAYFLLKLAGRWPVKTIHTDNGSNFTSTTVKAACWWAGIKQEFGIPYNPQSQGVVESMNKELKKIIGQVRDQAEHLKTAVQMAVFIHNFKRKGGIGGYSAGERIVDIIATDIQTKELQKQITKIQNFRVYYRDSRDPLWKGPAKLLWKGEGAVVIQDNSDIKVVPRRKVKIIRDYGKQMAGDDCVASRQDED
The target of assay [2] is Human immunodeficiency virus type 1 integrase (Human immunodeficiency virus 1) (UniProt Q7ZJM1). Kind of assay: Activity against HIV-1 integrase in range 5-20 uM compared to integric acid.
Chain of Human immunodeficiency virus type 1 integrase (Human immunodeficiency virus 1) (Q7ZJM1 as listed by the source): as the sequence (Q7ZJM1 whole entry) above
Assay [3] has the same target. The assay can be described thus: Compound was tested for strand transfer activity against HIV-1 integrase at 50 uM; weak inhibition.

In assay [1], `C=C(C=O)[C@@H]1C[C@@]2(C)C(=CC1=O)[C@H](OC(=O)/C(C)=C/C(C)CCCC)CC[C@@H]2C(=O)O/C(=N\C1CCCCC1)NC1CCCCC1` (stereo not given in full) returned an IC50 of 88 µM.
For the compound `CC1=C2C[C@@]3(C)C(=CCC[C@@H]3C(=O)O)C=C2OC1=O`, the IC50 in assay [1] was > 100 µM.
`C=C/C(C)=C1\C[C@@]2(C)C(=CC1=O)[C@H](OC(=O)/C(C)=C/C(C)CCCC)CC[C@@H]2C(=O)O` (stereo not given in full): the IC50 in assay [1] came to 75 µM.
Consider `CCCCC(C)/C=C(\C)C(=O)O` (stereo not given), for which the outcome in assay [2] was Active. This compound also showed an IC50 in assay [1] of 12 µM.
For `C=C(CO)[C@@H]1C[C@@]2(C)C(=C[C@H]1O)[C@H](OC(=O)/C(C)=C/C(C)CCCC)CC[C@@H]2C(=O)O` (stereo not given in full), in assay [1], the concentration for half-maximal inhibition (IC50) stood at 73 µM.
In assay [1], `CCCCC(C)/C=C(\C)C(=O)O[C@@H]1CC[C@H](C(=O)O)[C@@]2(C)C[C@H]3[C@H](C)CO[C@]3(O)C[C@H]12` (stereo not given in full) registered an IC50 of 100 µM.
Consider `C=C(C=O)[C@@H]1C[C@@]2(C)C(=CC1=O)[C@H](OC(=O)/C(C)=C/C(C)CCCC)CC[C@@H]2C(=O)ON[C@H](C(=O)OC)c1ccccc1` (stereo not given in full), for which the result in assay [2] was Active. In addition, in assay [1], the IC50 stood at 5 µM.
`C=C(C=O)[C@@H]1C[C@@]2(C)C(=CC1=O)[C@H](OC(=O)/C(C)=C/C(C)CCCC)CC[C@@H]2C(=O)OP(=O)(OCC)OCC` (stereo not given in full) came in with a half-maximal inhibitory concentration (IC50) in assay [1] of 81 µM.
For `C=C(C=O)[C@@H]1C[C@@]2(C)C(=CC1=O)[C@H](OC(=O)/C(C)=C/C(C)CCCC)CC[C@@H]2C(=O)N[C@@H](CC(C)C)C(=O)OC` (stereo not given in full), the outcome in assay [2] was Active. The IC50 in assay [1] came to 3 µM.
With `C=C(C=O)[C@@H]1C[C@@]2(C)C(=CC1=O)[C@H](OC(=O)/C(C)=C/C(C)CCCC)CC[C@@H]2C(=O)NCCNC(=O)[C@H]1CC[C@@H](OC(=O)/C(C)=C/C(C)CCCC)C2=CC(=O)[C@H](C(=C)C=O)C[C@@]21C` (stereo not given in full), the result in assay [2] was Active. The compound also came in with an IC50 in assay [1] of 10 µM.
With `C=C(C=O)[C@@H]1C[C@@]2(C)C(=CC1=O)[C@H](OC(=O)/C(C)=C/C(C)CCCC)CC[C@@H]2C(=O)O` (stereo not given in full), the result in assay [2] was Active. Also, the IC50 in assay [1] is 3 µM.
`CCCCC(C)/C=C(\C)C(=O)O[C@@H]1CC[C@H](C(=O)O)[C@@]2(C)C[C@H]3[C@@H](C)CO[C@]3(O)C[C@H]12` (stereo not given in full): half-maximal inhibition in assay [1] (IC50) required 45 µM.
For `CCCCC(C)/C=C(\C)C(=O)O[C@@H]1CC[C@H](C(=O)O)[C@@]2(C)CC3C(C)C(O)OC3(O)C=C12` (stereo not given in full), 40 µM corresponded to half-maximal inhibition in assay [1] (IC50).
As for `C=C(C=O)[C@@H]1C[C@@]2(C)C(=CC1=O)[C@H](OC(=O)/C(C)=C/C(C)CCCC)CC[C@@H]2C(=O)ON[C@@H](C(=O)OC)c1ccccc1` (stereo not given in full), the outcome in assay [2] was Active. Further, half-maximal inhibition in assay [1] (IC50) was put at 5 µM.
`CCCCC(C)/C=C(\C)C(=O)O[C@@H]1CC[C@H](C(=O)O)[C@@]2(C)CC([C@@H](C)C=O)C(=O)C=C12` (stereo not given in full): the result in assay [2] was Active. Further, the Activity result in assay [3] was “weak inhibition”. Further, in assay [1], the 50% inhibitory concentration (IC50) came out at 11 µM.
In the case of `CCCCC(C)/C=C(\C)C(=O)O[C@@H]1CC[C@H](C(=O)O)[C@@]2(C)C[C@@H](C(C)C(O)O)C(=O)C=C12` (stereo not given in full), inhibition in assay [1] was half-maximal at 40 µM (IC50).
With `C=C(C=O)[C@@H]1C[C@@]2(C)C(=CC1=O)[C@H](OC(=O)/C(C)=C/C(C)CCCC)CC[C@@H]2C(=O)N1CCN(C(=O)[C@H]2CC[C@@H](OC(=O)/C(C)=C/C(C)CCCC)C3=CC(=O)[C@H](C(=C)C=O)C[C@@]32C)CC1` (stereo not given in full), the result in assay [2] was Active. For the same compound, the 50% inhibitory concentration (IC50) in assay [1] amounted to 24 µM.
On to `CCCCC(C)/C=C(\C)C(=O)O[C@@H]1CC[C@H](C(=O)O)[C@@]2(C)C[C@@H]([C@H](C)C=O)C(=O)C=C12` (stereo not given in full), for which the result in assay [2] was Active. For the same compound, the Activity result in assay [3] was “weak inhibition”. In assay [1], this compound showed an IC50 of 11 µM.
`C=CC(=C)[C@@H]1C[C@@]2(C)C(=CC1=O)[C@H](OC(=O)/C(C)=C/C(C)CCCC)CC[C@@H]2C(=O)O` (stereo not given in full) displayed a half-maximal inhibitory concentration (IC50) in assay [1] of 30 µM.
